We go through three compounds from patent US7582280B2, “Conjugates of antioxidants with metal chelating ligands for use in diagnostic and therapeutic applications” (Bracco International B.V., priority 2000, dated 2009).

Structures can show the parent of a compound that is named as a salt.

Data set [1] relates to myocardial lesions induced by ischemia-reperfusion. Particulars: rats; cited from earlier work.
Data set [2] in a line: Relaxivity in water (relaxometer). Format: physicochemical. Particulars: 38° C., IBM PC/20 multispec relaxometer. The text has this:
(§1) Relaxivity of a paramagnetic material in the presence of a large protein such as human serum albumin may be used to study the ability of the compounds of the present invention to bind the target protein. As such, when a small molecule binds a large protein, the relaxivity of the former will increase because of an increase in its rotational correlation time. This increase in relaxivity may be used not only to measure the extent of binding but also to evaluate the viability of the paramagnetic agent as a blood pool contrast medium.
(§2) The relaxivity of the conjugates 22a and 22b in water as well as in water containing a known amount (20%, v/v) of a HSA preparation, known as, seronom (Table 1) were studied.
(§3) The relaxation time of the samples (22a or 22b) in seronom (T1Gd-ligand in seronom) and in water (T1Gd-ligand in water) were measured at 38° C. using an IBM PC/20 multispec relaxometer. The relaxivity of the samples in seronom (r1Gd-ligand in seronom) and in water (r1Gd-ligand in water) were calculated by the following equations: r1Gd-ligand in seronom=(1/T1Gd-ligand in seronom−1/T1seronom)/[Gd-ligand] r1Gd-ligand in water=(1/T1Gd-ligand in water−1/T1water)/[Gd-ligand],
(§4) where [Gd-ligand] is the concentration of the chelate 22a or 22b, which was determined by ICP^11; T1seronom is the relaxation time for pure aqueous seronom; T1water is the relaxation time for pure water.

Data set [3] addresses T1, seronom (HSA preparation) (Homo sapiens, UniProt P02768). Put plainly: Relaxivity in water containing 20% v/v seronom (HSA preparation). The class given is physicochemical. Particulars: for Relaxivity in aqueous seronom r1Gd-ligand in seronom: 38° C., water containing 20% v/v seronom; for increase in relaxivity in the presence of seronom: seronom versus water.
Excerpt: as §1, §2, §3, §4

Data set [4] has as its target T1, seronom (HSA preparation). The data set is described as follows: Fraction bound in aqueous seronom by centrifree micropartition ultrafiltration and ICP [Gd]. Conditions: centrifuged 500 xg 45 min, [Gd] by ICP. Format: in vitro ADME. As for the experimental part:
After the measurement, the sample in aqueous seronom was placed in a centrifree micropartition device (Millipore, Beverly, Mass.). The device was centrifuged at 500 xg for 45 min in a fixed angle rotor (Beckman Model J2-21M, JA-20 rotor). The solution (0.5 mL) was taken from below the filter (unbound Gd-ligand) for [Gd] ICP measurement. The [Gd] of the uncentrifuged sample was also measured as a control. The Fraction Bound was calculated by the following equation: Fraction Bound=([Gd-ligand]control−[Gd-ligand]unbound)/[Gd-ligand]control. Table 1 details the results of the tests.

T1 sequence (P02768 25-609): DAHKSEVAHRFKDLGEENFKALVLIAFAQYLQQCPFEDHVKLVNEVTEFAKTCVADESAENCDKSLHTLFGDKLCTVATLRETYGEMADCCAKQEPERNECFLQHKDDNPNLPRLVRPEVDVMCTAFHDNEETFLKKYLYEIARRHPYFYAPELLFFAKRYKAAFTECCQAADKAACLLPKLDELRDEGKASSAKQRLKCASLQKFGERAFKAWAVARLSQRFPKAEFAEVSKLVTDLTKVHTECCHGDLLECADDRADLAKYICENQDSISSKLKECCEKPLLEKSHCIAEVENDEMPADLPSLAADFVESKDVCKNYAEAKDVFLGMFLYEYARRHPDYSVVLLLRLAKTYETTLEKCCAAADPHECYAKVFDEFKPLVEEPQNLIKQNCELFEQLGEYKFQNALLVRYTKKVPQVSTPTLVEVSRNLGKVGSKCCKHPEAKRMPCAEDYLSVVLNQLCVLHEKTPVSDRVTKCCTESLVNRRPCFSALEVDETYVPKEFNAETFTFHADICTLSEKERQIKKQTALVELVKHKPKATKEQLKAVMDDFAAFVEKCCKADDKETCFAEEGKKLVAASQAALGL

Turning to `CCCCCCCCCCCCCCCCCCOC1=C(O)[C@@H]([C@@H](O)CO)OC1=O` [2-O-octadecylascorbic acid], in data set [1], the “inhibition of myocardial lesions induced by ischemia-reperfusion” value is reported as “markedly inhibit”.

Turning to `O=C(O)CN1CCN(CC(=O)O)CCN(CC(=O)NCC(=O)NC[C@@H](O)[C@@H]2OC(=O)C(O)=C2O)CCN(CC(=O)O)CC1` [Compound 22a, 1,4,7,10-tetraazacyclododecane-1,4,7-triacetic acid, 10-[2-[[2-[[(2R)-2-[(2S)-2,5-dihydro-3,4-dihydroxy-5-oxo-2-furanyl]-2-hydroxyethyl]amino]-2-oxoethyl]amino]2-oxoethyl]-, gadolinium salt], the “Relaxivity in water r1Gd-ligand in water” value in data set [2] was 4.83 mM⁻¹ s⁻¹. For the same compound, in data set [3], the “Relaxivity in aqueous seronom r1Gd-ligand in seronom” value is 6.38 mM⁻¹ s⁻¹ and the “increase in relaxivity in the presence of seronom” value is 32%. In addition, the fraction unbound in data set [4] was 0.912.

For the compound `O=C(O)CN1CCN(CC(=O)O)CCN(CC(=O)NCC(=O)NCC2CCC(C(=O)NC[C@@H](O)[C@@H]3OC(=O)C(O)=C3O)CC2)CCN(CC(=O)O)CC1` (stereo partly drawn) [Compound 22b, 1,4,7,10-tetraazacyclododecane-1,4,7-triacetic acid, 10-[2-[[2-[[[4-[[[(2R)-2-[(2S)-2,5-dihydro-3,4-dihydroxy-5-oxo-2-furanyl]-2-hydroxyethyl]amino]carbonyl]cyclohexyl]methyl]amino]-2-oxoethyl]amino]2-oxoethyl]-, gadolinium salt], the “Relaxivity in water r1Gd-ligand in water” value in data set [2] stood at 7.20 mM⁻¹ s⁻¹. In addition, in data set [3], the “Relaxivity in aqueous seronom r1Gd-ligand in seronom” value was found to be 8.18 mM⁻¹ s⁻¹ and the “increase in relaxivity in the presence of seronom” value is 14%. This compound gave a fraction unbound in data set [4] of 0.891.
